Reference: ChEMBL document CHEMBL1126580, “Enantiospecific syntheses of alpha-(fluoromethyl)tryptophan analogues: interactions with tryptophan hydroxylase and aromatic L-amino acid decarboxylase” (J Med Chem, 1993)
pKi: −log10 of the molar value.

Target: T1, Aromatic-L-amino-acid decarboxylase (Mus musculus, UniProt O88533)
T1 sequence (O88533 whole entry): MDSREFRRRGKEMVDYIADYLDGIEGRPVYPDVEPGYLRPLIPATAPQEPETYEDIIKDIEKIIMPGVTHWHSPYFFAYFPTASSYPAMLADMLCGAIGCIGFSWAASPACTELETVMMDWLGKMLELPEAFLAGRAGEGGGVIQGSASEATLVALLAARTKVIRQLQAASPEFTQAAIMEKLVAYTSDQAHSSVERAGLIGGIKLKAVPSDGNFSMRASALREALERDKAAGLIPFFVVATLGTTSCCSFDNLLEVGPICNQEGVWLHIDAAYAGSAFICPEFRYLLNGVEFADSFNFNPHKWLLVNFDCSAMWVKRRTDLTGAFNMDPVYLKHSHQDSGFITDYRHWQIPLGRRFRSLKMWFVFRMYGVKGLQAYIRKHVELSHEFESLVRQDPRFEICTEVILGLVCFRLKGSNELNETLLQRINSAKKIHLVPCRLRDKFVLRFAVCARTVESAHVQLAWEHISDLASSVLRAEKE
Test: Dissociation constant (KI) was evaluated as inhibitor of murine liver aromatic L-amino acid decarboxylase (AADC)

pKi: 4.61
SMILES: N[C@@](CF)(Cc1c[nH]c2ccc(O)cc12)C(=O)O
